Experimental data: patent US12534457B2, “Heteroaryl derivative compounds, and uses thereof” (Voronoi Inc., priority 2021, dated 2026)

System: Ba/F3 cells expressing EGFR Del19/C797S (EGFR DC)
Experiment: Proliferation inhibitory activity, Ba/F3 cells expressing EGFR Del19/C797S (CellTiter-Glo)
Format: cell-based
Settings: Mus musculus, BaF3, 72 hours of compound treatment
Method: The following experiments were performed to evaluate the inhibitory activity of the compounds according to the present disclosure on Ba/F3 proliferation expressing EGFR C797S, L861Q, G719A, S768I, L718Q, and/or G724S mutations.
For Ba/F3 cells, RPMI-1640 containing 10% FBS and 5 ng/ml IL-3 (R&D Systems) was used. Transduced Ba/F3 cells were cultured after adding 1 μg/ml puromycin (Invitrogen) to the same medium.
At 24 hours before treatment with the compounds, 3000 to 5000 cells were aliquoted into each well of a white clear bottom 96 well plate (Corning). The compounds were diluted in dimethyl sulfoxide (3 times dilution, 12 concentrations in total), and injected in an amount of 1 μl so that the final concentration was 0.2 nM to 5 uM. For measurement of living cells, after 72 hours of compound treatment, the cells were stored at room temperature for 10 min using CellTiter-Glo luminescentcell-viability reagent (Promega), and then luminescence intensity was measured using a reader (SynergyNeo, Biotek). Each test was repeated three times. Result values were calculated as the cell growth rate (%) compared to the control. The graphs were created using GraphPad Prism version 8.3.0 program and the GI50 values were calculated.

Structure (SMILES) | GI50
CCN1C2CC1CN(C1CCN(c3ccc(Nc4cc(N5OCC[C@@H]5c5cccc(F)c5F)ncn4)c(OC)c3)CC1)C2 [Example 219, 6-((R)-3-(2,3-difluorophenyl)isoxazolidin-2-yl)-N-(4-(4-(6-ethyl-3,6-diazabicyclo[3.1.1]heptan-3-yl)piperidin-1-yl)-2-methoxyphenyl)pyrimidin-4-amine] | < 50 nM
CN1CCN(C2CCN(c3ccc(Nc4cc(N5OCC[C@@H]5c5ccccc5)ncn4)cc3)CC2)CC1 [Example 54, (R)—N-(4-(4-(4-methylpiperazin-1-yl)piperidin-1-yl)phenyl)-6-(3-phenylisoxazolidin-2-yl)pyrimidin-4-amine] | < 50 nM
COc1cc(N2CCSCC2)ccc1Nc1cc(N2OCC[C@@H]2c2ccccc2)ncn1 [Example 66, (R)—N-(2-methoxy-4-thiomorpholinophenyl)-6-(3-phenylisoxazolidin-2-yl)pyrimidin-4-amine] | < 50 nM
CCc1cc(Nc2cc(N3OCC[C@@H]3c3cc(F)cc(F)c3)ncn2)c(OC)cc1N1CCC(N2CCN(C)CC2)CC1 [Example 25, (R)-6-(3-(3,5-difluorophenyl)isoxazolidin-2-yl)-N-(5-ethyl-2-methoxy-4-(4-(4-methylpiperazin-1-yl)piperidin-1-yl)phenyl)pyrimidin-4-amine] | < 50 nM
CN1C2CC1CN(c1ccc(Nc3cc(N4OCC[C@@H]4c4ccccc4)ncn3)cc1)C2 [Example 136, N-(4-(6-methyl-3,6-diazabicyclo[3.1.1]heptan-3-yl)phenyl)-6-((R)-3-phenylisoxazolidin-2-yl)pyrimidin-4-amine] | < 50 nM
COc1cc2c(cc1Nc1cc(N3OCC[C@@H]3c3ccccc3)ncn1)OC[C@H]1C[C@@H](N3CCN(C4CC4)CC3)CCN21 [Example 49, (6aR,8S)-8-(4-cyclopropylpiperazin-1-yl)-2-methoxy-N-(6-((R)-3-phenylisoxazolidin-2-yl)pyrimidin-4-yl)-6,6a,7,8,9,10-hexahydrobenzo[b]pyrido[1,2-d] [1,4]oxazin-3-amine] | < 50 nM
COc1cc(N2CCC(N3CCN(C)CC3)CC2)ccc1Nc1cc(N2OCC[C@@H]2c2cccc(F)c2F)ncn1 [Example 32, (R)-6-(3-(2,3-difluorophenyl)isoxazolidin-2-yl)-N-(2-methoxy-4-(4-(4-methylpiperazin-1-yl)piperidin-1-yl)phenyl)pyrimidin-4-amine] | < 50 nM
O=C1CCCN1c1ccc(Nc2cc(N3OCC[C@@H]3c3ccccc3)ncn2)cc1 [Example 75, (R)-1-(4-((6-(3-phenylisoxazolidin-2-yl)pyrimidin-4-yl)amino)phenyl)pyrrolidin-2-one] | < 50 nM
COc1cc(N2CCC(N3CCN(C)CC3)CC2)ccc1Nc1cc(N2OCC[C@@H]2c2cccc(C(F)(F)F)c2F)ncn1 [Example 28, (R)-6-(3-(2-fluoro-3-(trifluoromethyl)phenyl)isoxazolidin-2-yl)-N-(2-methoxy-4-(4-(4-methylpiperazin-1-yl)piperidin-1-yl)phenyl)pyrimidin-4-amine] | 50 to 500 nM
CN1CCN(C2CCN(c3ccc(Nc4cc(N5OCC[C@@H]5c5cc(F)cc(F)c5)ncn4)cc3C(F)(F)F)CC2)CC1 [Example 23, (R)-6-(3-(3,5-difluorophenyl)isoxazolidin-2-yl)-N-(4-(4-(4-methylpiperazin-1-yl)piperidin-1-yl)-3-(trifluoromethyl)phenyl)pyrimidin-4-amine] | 50 to 500 nM
COc1cc(N2CCC(N3CCN(C)CC3)CC2)ccc1Nc1cc(N2OCC[C@@H]2c2cccc(C(F)(F)F)c2)ncn1 [Example 27, (R)—N-(2-methoxy-4-(4-(4-methylpiperazin-1-yl)piperidin-1-yl)phenyl)-6-(3-(3-(trifluoromethyl)phenyl)isoxazolidin-2-yl)pyrimidin-4-amine] | 50 to 500 nM
FC(F)(F)c1cccc(Nc2cc(N3OCC[C@@H]3c3ccccc3)ncn2)c1 [Example 73, (R)-6-(3-phenylisoxazolidin-2-yl)-N-(3-(trifluoromethyl)phenyl)pyrimidin-4-amine] | 50 to 500 nM
CCN1CC2CC(C1)N2C1CCN(c2ccc(Nc3cc(N4OCC[C@@H]4c4cccc(F)c4F)ncn3)c(OC)c2)CC1 [Example 220, 6-((R)-3-(2,3-difluorophenyl)isoxazolidin-2-yl)-N-(4-(4-(3-ethyl-3,6-diazabicyclo[3.1.1]heptan-6-yl)piperidin-1-yl)-2-methoxyphenyl)pyrimidin-4-amine] | < 50 nM

The next lines start with the values.

GI50 | Structure (SMILES)
< 50 nM | C=Cc1cc(Nc2cc(N3OCC[C@@H]3c3cccc(F)c3F)ncn2)c(OC)cc1N1CCN(C)CC1 [Example 199, (R)-6-(3-(2,3-difluorophenyl)isoxazolidin-2-yl)-N-(2-methoxy-4-(4-methylpiperazin-1-yl)-5-vinylphenyl)pyrimidin-4-amine]
< 50 nM | COc1cc(N2CCC(N3CCN(C)[C@@H](C)C3)CC2)ccc1Nc1cc(N2OCC[C@@H]2c2cccc(F)c2F)ncn1 [Example 214, 6-((R)-3-(2,3-difluorophenyl)isoxazolidin-2-yl)-N-(4-(4-((S)-3,4-dimethylpiperazin-1-yl)piperidin-1-yl)-2-methoxyphenyl)pyrimidin-4-amine]
< 50 nM | CCc1cc(Nc2cc(N3OCC[C@@H]3c3ccc(F)cc3)ncn2)c(OC)cc1N1CCC(N2CCN(C)CC2)CC1 [Example 91, (R)—N-(5-ethyl-2-methoxy-4-(4-(4-methylpiperazin-1-yl)piperidin-1-yl)phenyl)-6-(3-(4-fluorophenyl)isoxazolidin-2-yl)pyrimidin-4-amine]
50 to 500 nM | COc1cc(P2(=O)CCN(C3CC3)CC2)ccc1Nc1cc(N2OCC[C@@H]2c2ccccc2)ncn1 [Example 81, (R)-1-cyclopropyl-4-(3-methoxy-4-((6-(3-phenylisoxazolidin-2-yl)pyrimidin-4-yl)amino)phenyl)-1,4-azaphosphinane 4-oxide]
< 50 nM | CN1Cc2cc(Nc3cc(N4OCC[C@@H]4c4ccccc4)ncn3)ccc2C1=O [Example 76, (R)-2-methyl-5-((6-(3-phenylisoxazolidin-2-yl)pyrimidin-4-yl)amino)isoindolin-1-one]
< 50 nM | COc1cc(N2CCC3(CC2)CC(N(C)C)C3)c(C)cc1Nc1cc(N2OCC[C@@H]2c2ccccc2)ncn1 [Example 88, (R)-7-(5-methoxy-2-methyl-4-((6-(3-phenylisoxazolidin-2-yl)pyrimidin-4-yl)amino)phenyl)-N,N-dimethyl-7-azaspiro[3.5]nonan-2-amine]
< 50 nM | COc1cc(Nc2cc(N3OCC[C@@H]3c3ccc(F)cc3F)ncn2)ccc1N1CCC(N2CCN(C)CC2)CC1 [Example 95, (R)-6-(3-(2,4-difluorophenyl)isoxazolidin-2-yl)-N-(3-methoxy-4-(4-(4-methylpiperazin-1-yl)piperidin-1-yl)phenyl)pyrimidin-4-amine]
< 50 nM | COc1cc(N2CCC(N3CCOCC3)CC2)ccc1Nc1cc(N2OCC[C@@H]2c2ccccc2)ncn1 [Example 120, (R)—N-(2-methoxy-4-(4-morpholinopiperidin-1-yl)phenyl)-6-(3-phenylisoxazolidin-2-yl)pyrimidin-4-amine]
50 to 500 nM | COc1cc(N2CCC(N3CCN(C)CC3)CC2)ccc1Nc1cc(N2OCC[C@@H]2c2cc(F)cc(C#N)c2)ncn1 [Example 170, (R)-3-fluoro-5-(2-(6-((2-methoxy-4-(4-(4-methylpiperazin-1-yl)piperidin-1-yl)phenyl)amino)pyrimidin-4-yl)isoxazolidin-3-yl)benzonitrile]
< 50 nM | COc1cc(N2CCC(N3CCN(C)C(=O)C3)CC2)ccc1Nc1cc(N2OCC[C@@H]2c2cccc(F)c2F)ncn1 [Example 224, (R)-4-(1-(4-((6-(3-(2,3-difluorophenyl)isoxazolidin-2-yl)pyrimidin-4-yl)amino)-3-methoxyphenyl)piperidin-4-yl)-1-methylpiperazin-2-one]
< 50 nM | c1ccc([C@H]2CCON2c2cc(Nc3ccc4c(c3)CCNC4)ncn2)cc1 [Example 78, (R)—N-(6-(3-phenylisoxazolidin-2-yl)pyrimidin-4-yl)-1,2,3,4-tetrahydroisoquinolin-6-amine]
< 50 nM | CO/N=C(\C)c1cc(Nc2cc(N3OCC[C@@H]3c3cccc(F)c3F)ncn2)c(OC)cc1N1CCC(N2CCN(C)CC2)CC1 [Example 146, (R,E)-1-(5-((6-(3-(2,3-difluorophenyl)isoxazolidin-2-yl)pyrimidin-4-yl)amino)-4-methoxy-2-(4-(4-methylpiperazin-1-yl)piperidin-1-yl)phenyl)ethan-1-one O-methyl oxime]
< 50 nM | CCN1C[C@H]2C[C@@H]1CN2C1CCN(c2ccc(Nc3cc(N4OCC[C@@H]4c4ccccc4)ncn3)c(OC)c2)CC1 [Example 116, N-(4-(4-((1R,4R)-5-ethyl-2,5-diazabicyclo[2.2.1]heptan-2-yl)piperidin-1-yl)-2-methoxyphenyl)-6-((R)-3-phenylisoxazolidin-2-yl)pyrimidin-4-amine]
< 50 nM | CC(C)(C)OC(=O)N1CCc2ccc(Nc3cc(N4OCC[C@@H]4c4ccccc4)ncn3)cc2C1 [Example 134, tert-butyl (R)-7-((6-(3-phenylisoxazolidin-2-yl)pyrimidin-4-yl)amino)-3,4-dihydroisoquinoline-2 (1H)-carboxylate]
< 50 nM | COc1cc(N2CCN(C)CC2)c(-c2cnn(C)c2)nc1Nc1cc(N2OCC[C@@H]2c2cccc(F)c2F)ncn1 [Example 201, (R)-6-(3-(2,3-difluorophenyl)isoxazolidin-2-yl)-N-(3-methoxy-6-(1-methyl-1H-pyrazol-4-yl)-5-(4-methylpiperazin-1-yl)pyridin-2-yl)pyrimidin-4-amine]
